Measurements taken from publication PMC8230474, “Synthesis of Novel Acyl Derivatives of 3-(4,5,6,7-Tetrabromo-1H-benzimidazol-1-yl)propan-1-ols—Intracellular TBBi-Based CK2 Inhibitors with Proapoptotic Properties” (International Journal of Molecular Sciences, 2021).

Assays:
[1] = system: protein kinase CK2 in MDA-MB-231 cells; test: Intracellular inhibition of CK2, Western blot of p-Ser529 p65 and p-Ser129 Akt1, MDA-MB-231; assay type: cell-based, human; conditions: MDA-MB-231, 24 h treatment, compound at its 72-h EC50, relative to untreated control
Excerpt: We observed an inhibition of CK2 in both cell lines; however, the lower efficiency of CK2 inhibition was detected in MCF-7 considering the extent of Akt1 phosphorylation. The relative level of the phosphorylation of the tested proteins in MDA-MB-231 cells was in the range of 0.32 to 0.80 for p-Ser529 p65 and 0.41 to 0.73 for p-Ser129 Akt1, whereas in MCF-7 cells it was in the range of 0.33 to 0.78 for p-Ser529 p65 and 0.82 to 1.23 for p-Ser129 Akt1, respectively. The lowest phosphorylation levels of the tested proteins were detected in MDA-MB-231 cells for compound 6b with the relative level of 0.41 for Ser129 Akt1 as well as for compound 6c with the relative level of 0.32 for p-Ser529 p65. Among the tested proteins, the lowest extent of phosphorylation in MCF-7 cells was detected for 6b with the relative level of 0.33 for p-Ser529 p65, and for 6a with the relative level of 0.82 for Ser129 Akt1.
The MCF-7 cells growing exponentially were seeded at 4.8 × 10^5 cells in 6-cm-diameter plates. Subsequently, compounds were added in a final concentration of 0.5% DMSO. […] The protein concentration was determined using Bradford assay. […]
For densitometry, immunoblots were quantified using the Fiji distribution of the ImageJ 1.52a software (National Institutes of Health, Bethesda, MD, USA, and the University of Wisconsin, Madison, WI, USA). […]

MCF-7 cells = test: Annexin V-FITC/PI flow cytometry, MCF-7; assay type: cell-based, human; conditions: MCF-7, 72-h treatment, compound at its EC50
Procedure: Additionally, assaying annexin V-binding to phosphatidylserine by means of flow cytometry confirmed that derivatives 3c and 6a–c induced apoptosis in both cell lines (Figure 9, Figure S3).
MCF-7 cells were seeded in six-well plates at 1.5 × 10^5 cells/well. […] Then, the plates were incubated for 24 h or 72 h. After exposure to the examined compounds, the floating cells were collected, and monolayer cell culture was trypsinized. The cells were centrifugated at 200× g at 4 °C for 5 min, washed twice in cold phosphate-buffered saline (PBS), and subsequently suspended in binding buffer at 1 × 10^6 cells/mL. Subsequently, 100-μL aliquots of the cell suspension were labeled according to the kit manufacturer’s instructions. Briefly, annexin V-fluorescein isothiocyanate and propidium iodide (BD Biosciences, Pharmingen, San Diego, CA, USA) were added to the cell suspension, and the mixture was vortexed and then incubated for 15 min at RT in the dark. A cold binding buffer (900 μL) was then added and the cells were vortexed again and kept on ice. Flow cytometric measurements were performed within 1 h after labeling. Viable, necrotic, early, and late apoptotic cells were detected by flow cytometry using CyFlow Cube 8 (Sysmex, Norderstedt, Germany) flow cytometer.

CCCCCC(=O)OCCCn1c(C)nc2c(Br)c(Br)c(Br)c(Br)c21 [Compound 6b, (4,5,6,7-Tetrabromo-2-methyl-1H-benzimidazol-1-yl)propyl hexanoate]
relative level of p-Ser129 Akt1 [1]: 0.41
apoptotic cells (early and late apoptosis) (MCF-7 cells): 57.5%
